From PMC2603307 (Chemistry & biology, 2008)

Biological target: T1, E. coli GCH I (FolE, B2153) (Escherichia coli, UniProt P0A6T5)
T1 sequence (P0A6T5 2-222): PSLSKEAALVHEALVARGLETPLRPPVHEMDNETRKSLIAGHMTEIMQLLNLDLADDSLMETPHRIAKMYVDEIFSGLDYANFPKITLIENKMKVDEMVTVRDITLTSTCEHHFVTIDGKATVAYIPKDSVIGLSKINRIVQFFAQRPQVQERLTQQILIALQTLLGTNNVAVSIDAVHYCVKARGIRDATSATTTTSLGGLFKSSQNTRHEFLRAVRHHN
Experiment: LC-MS of product
Format: biochemical
Conditions: 20 mM Tris-SO4 pH 8.0, 2 mM dithiothreitol, 0.1 M KCl, 100 uM GTP, 120 min, ambient temperature

Nc1nc2c(ncn2[C@@H]2O[C@H](COP(=O)(O)OP(=O)(O)OP(=O)(O)O)[C@@H](O)[C@H]2O)c(=O)[nH]1 [GTP] was tested, and the LC-MS of product was “product produced by ToyD with that produced with E. coli GCH I (FolE, B2153)”.
